Source: PMC6300282, “Sulphamethazine derivatives as immunomodulating agents: New therapeutic strategies for inflammatory diseases” (PLoS ONE, 2018)

Key:
[1] = tested on: zymosan activated whole blood phagocytes; test: Oxidative burst assay (luminol-enhanced chemiluminescence), whole blood; format: cell-based; conditions: human whole blood, serum opsonized zymosan, three doses 1, 10, 100 μg/mL, mean ± SD of three, NA = Not active, read-out: Oxidative Burst Inhibition (IC50) WB
Procedure: (§1) Luminol-enhanced chemiluminescence assay was performed, as described by Helfandet al., 1982 [17], with some modifications. Briefly 25 μL of diluted whole blood in HBSS^++ (Hanks Balanced Salt Solution, containing calcium chloride and magnesium chloride) [Sigma, St. Louis, USA] was incubated with 25 μL of three different concentrations of compounds (1, 10, and 100 μg/mL), each in triplicate. Control wells received HBSS^++ and cells, but no compounds. Test was performed in white half area 96-well plates [Costar, NY, USA], which was incubated at 37 °C for 15 minutes in the thermostat chamber of luminometer [Labsystems, Helsinki, Finland]. After incubation, 25 μL of serum opsonized zymosan (SOZ) [Fluka, Buchs, Switzerland] and 25 μL of intracellular reactive oxygen species detecting probe, luminol [Research Organics, Cleveland, OH, USA] were added into each well, except blank wells (containing only HBSS^++). The level of the ROS was recorded in luminometer in term of relative light units (RLU).

[2] = tested on: isolated polymorphonuclear neutrophils (PMNs); test: Oxidative burst assay (luminol-enhanced chemiluminescence), isolated PMNs; format: cell-based; conditions: Polymorphonuclear neutrophil, isolated human PMNs, zymosan, three doses 1, 10, 100 μg/mL, mean ± SD of three, read-out: Oxidative Burst Inhibition (IC50) PMNs
Source text: Heparinized blood was obtained by vein puncture aseptically from healthy volunteers. The PMNs were isolated by ficoll-Hypaque density gradient method. The cells were isolated after centrifugation from the tube base. Cells were washed twice and suspended in Hank’s Balance salt solution (HBSS^--) (Ca^2+ and Mg^2+ free), RBCs were lysed using hypotonic solution. Cells were adjusted to their required concentration (1x10^6 cells/mL) using HBSS^++containing Ca^2+ and Mg^2+.
as §1

[3] = tested on: nitric oxide (NO) production from LPS activated J774.2 mouse macrophages; test: Nitric oxide production (Griess), LPS activated macrophages; format: cell-based; conditions: J774.2 cells, 30 μg/mL LPS, three doses 1, 10, 100 μg/mL, mean ± SD of three, read-out: NO Inhibition (IC50)
Procedure: The mouse macrophage cell line J774.2 (European Collection of Cell Cultures, UK) was cultured in 75 cc flasks IWAKI (Asahi Techno Glass, Japan) in DMEM Sigma-Aldrich (Steinheim, Germany) supplemented with 10% fetal bovine serum GIBCO (New York, USA)1% streptomycin/penicillin. Flasks were kept at 37 °C in atmosphere of humidified air containing 5% CO2, cells were seeded in 96-well plate (10^6 cells/mL) and were induced by 30 μg/mL e. coli lipopolysaccharide (LPS) (DIFCO Laboratories michigon, USA). The test compounds were added at concentrations of (1, 10 and 100 μg/mL) and plate was incubated at 37 °C in 5% CO2. Nitrite accumulation in culture supernatant was measured using the Griess reagents as described previously.

[4] = tested on: TNF-α production from THP-1 human monocytic leukemia cell line; test: TNF-α production (ELISA), LPS stimulated THP-1 cells; format: cell-based; conditions: PMA-differentiated THP-1 cells, 50 ng/mL LPS, 4 hours; three doses 1, 10, 100 μg/mL; mean ± SD of three
Source text: RPMI-1640 (R8758, Sigma Aldrich, St. Louis, USA); L-glutamine (25030081, Gibco, California, USA); D-glucose (G8270, Sigma Aldrich, St. Louis, USA); 2-mercaptoethanol (190242, MP Biomedicals, lllkirch, France); sodium pyruvate (11360–070, Gibco, California, USA); FBS (A11-104, PAA Laboratories, Pasching, Austria); HEPES (H3375, Sigma Aldrich, St. Louis, USA); PMA (151864, MP Biomedicals, lllkirch, France); lipopolysaccharide B of E. coli 0111:B4 (LPS) (3922–25, DIFCO Laboratories, USA); 24-well tissue culture plates (CLS3524, Corning, Dublin, USA); Flat bottom 96-well tissue culture plates (CLS3300, Corning, New York, USA). BSA (151429, MP Biomedicals, lllkirch, France); PBS tablets (41620016–4, Bioworld, Dublin, Ireland); Tween 20 (822184, Merck, Damstadt, Germany); Human TNF-α DuoSet ELISA Kit (DY210, R&D Systems, Minneapolis, USA); Human IL-1β DuoSet ELISA Kit (DY201, R&D Systems, Minneapolis, USA); and Human IL-2 DuoSet ELISA Kit (DY202, R&D Systems, Minneapolis, USA); ELISA plate sealers (DY992, R&D Systems, Minneapolis, USA); Clear flat bottom 96-well microplates (DY990, R&D Systems, Minneapolis, USA). Human monocytic leukemia cells THP-1 were obtained from (European Collection of Cell Cultures, UK). The cells were maintained in RPMI-1640 containing 5.5 mmol/L glucose (BioM Laboratories, Chemical Division, Malaysia), 50 μmol/L mercaptoethanol (Merck Damstadt, Germany), 10% FBS (fetal bovine serum), 2 mmol/L; L-glutamine (PAA Laboratories, GmbH, Pasching, Austria). Cells were grown in 75 cc flasks, harvested and 2.5×10^5 cells/mL was then plated in 24-well tissue culture plates. 20 ng/mL of phorbol-12-myristate-13-acetate (PMA), (SERVA, Heidelberg, Germany) was added followed by incubation for 24 hours at 37 °C in 5% CO2to convert them into macrophage like cell. Cells were then stimulated with E. coli lipopolysacchride B, (DIFCO Laboratories, michigon, USA) at a final concentration of 50 ng/mL and treated with compounds at three different concentration (1, 10 and 100 μg/mL) and then incubated for 4 hours at 37 °C in 5% CO2. The supernatants collected were analyzed for the level of TNF -α using the human TNF-α Duo Set ELISA (R&D Systems, Minneapolis, USA), and according to manufacturer’s instructions.

[5] = tested on: Staphylococcus aureus (ATCC 25923); test: Microplate Alamar Blue Assay, Staphylococcus aureus; format: cell-based; conditions: 200 μg/mL, NI = No inhibition; for inhibition at 200 µg/mL: Staphylococcus aureus, ATCC25923, read-out: Percentage (%) Inhibition, Staphylococcus aureus
Procedure: (§2) The anti-bacterial activity of synthesized compound were evaluated by the Microplate Alamar Blue Assay. Staphylococcus aureus (ATCC 25923), Pseudomonas aeruginosa(POA 286), Salmonella typhi (ATCC 14028), Bacillus subtilis ATCC 6633) and Escherichia coli (ATCC 12022) were used in this study as a standard bacterial strains and they were obtained from microbial bank of PCMD, International Center for Chemical and Biological Sciences, University of Karachi, Karachi-75270, Pakistan. The bacterial colonies grown in Trypton Soya Agar (TSA) (Oxoid Limited, UK) were inoculated in Mueller Hinton Broth (MHB) (Oxoid Limited, UK) and incubated overnight at 37 °C. Fully grown bacterial cultures were then diluted to adjust with 0.5 McFarland Turbidity Index (equivalent to 1.5 × 10^8 CFU/mL). Stock solutions (4 mg/mL) of different test compounds were prepared in DMSO and 10μL each of these stock solutions were placed in well of flat bottom, polystyrene, sterile 96-wells plate except the positive control wells (media + bacteria). This gives 200μg/mL concentrations of compounds in final 200 μL solution. Each compound was run in triplicates. Finally, bacterial suspension (5 x 10^6 CFU/mL) was added in each well. Plates were sealed by parafilm and incubated at 37 °C for 18–22 hrs. Next day, 20 μL of 0.02% resazurin sodium salt dye (Chem-Impex-Int’LInc) was added in each well and incubated in shaking incubator at 80 rpm, 37 °C for 2–3 hrs. The color change from blue to reddish pink indicates the growth of bacteria. For quantitative analysis, plates were read at 570 nm and 600 nm in Multiskan GOmicroplate spectrophotometer, (Thermo Scientific, USA). The % inhibition of bacterial growth was calculated using below mentioned formula.
(§3) For the calculation of the % difference in reduction between treated and control cells in cytotoxicity/proliferation assays: =(εOX)λ2Aλ1-(εOX)λ1Aλ2oftestagent/(εOX)λ2A°λ1-(εOX)λ1A°λ2ofpositivegrowthcontrol×100

MTT cytotoxicity assay = format: cell-based, mouse; conditions: mouse; MTT, 48 hours; read-out: Cytotoxicity NIH-3T3 cell line (IC50)
Procedure: (§4) The cytotoxicity was recorded as concentration causing 50% growth inhibition (IC50).

[6] = tested on: Escherichia coli (ATCC 12022); test: Microplate Alamar Blue Assay, Escherichia coli; format: cell-based; conditions: ATCC12022, 200 μg/mL, NI = No inhibition, read-out: Percentage (%) Inhibition, Escherichia coli
Procedure: as §2, §3

[7] = tested on: Bacillus subtilis (ATCC 6633); test: Microplate Alamar Blue Assay, Bacillus subtilis; format: cell-based; conditions: ATCC6633, 200 μg/mL, NI = No inhibition, read-out: Percentage (%) Inhibition, Bacillus subtilis
Procedure: as §2, §3

[8] = tested on: Salmonella typhi (ATCC 14028); test: Microplate Alamar Blue Assay, Salmonella typhi; format: cell-based; conditions: 200 μg/mL, NI = No inhibition; for inhibition at 200 µg/mL: Salmonella enterica, read-out: Percentage (%) Inhibition, Slamonella typhi
Procedure: as §2, §3

[9] = tested on: Pseudomonas aeruginosa (POA 286); test: Microplate Alamar Blue Assay, Pseudomonas aeruginosa; format: cell-based; conditions: 200 μg/mL, NI = No inhibition; for inhibition at 200 µg/mL: Pseudomonas aeruginosa, read-out: Percentage (%) Inhibition, Pseudomonas aerugenosa
Procedure: as §2, §3

[10] = tested on: mouse fibroblast NIH-3T3 cell line; test: MTT cytotoxicity assay; format: cell-based; conditions: MTT, 48 hours
Procedure: as §4

SMILES	inhibition at 200 µg/mL [5]	IC50 (MTT cytotoxicity assay)	inhibition at 200 µg/mL [6]	inhibition at 200 µg/mL [7]	inhibition at 200 µg/mL [8]	inhibition at 200 µg/mL [9]	further results
CC(C)Cc1ccc(C(C)C(=O)O)cc1 (centres unmarked) [40 (Ibuprofen), Ibuprofen, reference compound]	–	–	–	–	–	–	IC50 [1]: 11.2 ± 1.9 µg/mL; IC50 [2]: 2.5 ± 0.6 µg/mL
[H]/N=C(/NC)NCCC[C@H](N)C(=O)O [41 (L-NMMA), NG monomethyl L-arginine acetate, reference compound]	–	–	–	–	–	–	IC50 [3]: 24.2 ± 0.6 µg/mL
CC(=O)CCCCn1c(=O)c2c(ncn2C)n(C)c1=O [42 (Pentoxifillin), Pentoxifillin, reference compound]	–	–	–	–	–	–	TNF-α Inhibition (IC50) [4]: 94.8 ± 2.1 µg/mL
Cc1cc(C)nc(NS(=O)(=O)c2ccc(NC(=O)C34CCC(C)(C(=O)O3)C4(C)C)cc2)n1 (centres unmarked) [Compound 15, N-(4-(N-(4,6-dimethylpyrimidin-2-yl)sulfamoyl)phenyl)-4,7,7-trimethyl-3-oxo-2-oxabicyclo[2.2.1]heptane-1-carboxamide]	14.1%	> 30 µM	< 0%	38.4%	29.3%	29.4%	melting point: 254 to 256 °C
Cc1cc(C)nc(NS(=O)(=O)c2ccc(NC(=O)c3cccc(C(F)(F)F)c3)cc2)n1 [Compound 20]	–	–	–	–	–	–	Percentage (%) Inhibition, Staphylococcus aureus [5]: 30.78%; IC50 [10]: > 30 µM; Percentage (%) Inhibition, Slamonella typhi [8]: 9.30%; Percentage (%) Inhibition, Pseudomonas aerugenosa [9]: 1.66%
Cc1cc(C)nc(NS(=O)(=O)c2ccc(NC(=O)c3ccc(Cl)cc3Cl)cc2)n1 [Compound 24, 2,4-dichloro-N-(4-(N-(4,6-dimethylpyrimidin-2-yl)sulfamoyl)phenyl)benzamide]	48.4%	> 30 µM	7.45%	< 0%	18.4%	< 0%	melting point: 233 to 236 °C
Cc1cc(C)nc(NS(=O)(=O)c2ccc(NC(=O)c3ccccc3C)cc2)n1 [Compound 35, N-(4-(N-(4,6-dimethylpyrimidin-2-yl)sulfamoyl)phenyl)-2-methylbenzamide]	< 0%	> 30 µM	< 0%	< 0%	0.2%	16.5%	–
Cc1cccc(C(=O)Nc2ccc(S(=O)(=O)Nc3nc(C)cc(C)n3)cc2)c1 [Compound 36, N-(4-(N-(4,6-dimethylpyrimidin-2-yl)sulfamoyl)phenyl)-3-methylbenzamide]	< 0%	> 30 µM	< 0%	< 0%	< 0%	20.5%	–
Cc1cc(C)nc(NS(=O)(=O)c2ccc(NC(=O)CCc3ccccc3)cc2)n1 [Compound 37, N-(4-(N-(4,6-dimethylpyrimidin-2-yl)sulfamoyl)phenyl)-3-phenylpropanamide]	10.2%	> 30 µM	< 0%	< 0%	< 0%	< 0%	–
Cc1cc(C)cc(C(=O)Nc2ccc(S(=O)(=O)Nc3nc(C)cc(C)n3)cc2)c1 [Compound 38, N-(4-(N-(4,6-dimethylpyrimidin-2-yl)sulfamoyl)phenyl)-3,5-dimethylbenzamide]	< 0%	> 30 µM	< 0%	< 0%	< 0%	19%	melting point: 216 to 218 °C
Cc1cc(C)nc(NS(=O)(=O)c2ccc(NC(=O)c3ccccc3)cc2)n1 [Compound 39, N-(4-(N-(4,6-dimethylpyrimidin-2-yl)sulfamoyl)phenyl)benzamide]	41.1%	> 30 µM	1.84%	< 0%	12.5%	< 0%	–
